Assay results reported in publication PMC7998250, “Temperate Zone Plant Natural Products—A Novel Resource for Activity against Tropical Parasitic Diseases” (Pharmaceuticals, 2021).
Like-named read-outs stand apart in the source and are kept apart here.

Assays:
[1] = tested on: 700022-resistant line of L. mexicana (r22) axenic amastigotes; assay: EC50 in 700022-resistant L. mexicana (r22) axenic amastigotes; type: cell-based, Leishmania mexicana; settings: for EC50: Leishmania mexicana, read-out: r22 28 weeks EC50, r22 after 28 weeks of 700022 selection pressure; for r22 28 weeks RI (resistance index, EC50 in r22/EC50 in WT): 28 weeks of 700022 selection pressure
Protocol: A 700022-resistant line of L. mexicana (r22) was generated using a previously reported method (Figure S3). […] All leishmanicidal sterols identified were assayed against r22 after 8 weeks of 700022 pressure and cross-resistance was found against all four compounds, each with a similar resistance index of between 4–5 (Figure 6c). Following 28 weeks of selection, the morphology of the r22 promastigotes was compared to that of WT (Figure 6d). […] The body area of both promastigotes and amastigotes was also assessed, noting a small (c 20%) decrease in the body area of r22 parasites compared to WT strains (Figure S3).
Figure 6 Comparison between wildtype and 700022-resistant (r22) L. mexicana cell lines. Log concentration versus normalised (compared to untreated control) growth curves for wildtype (WT) and corresponding 700022-selected (r22) L. mexicana (a) promastigotes and (b) axenic amastigotes. Error bars represent upper and lower limits of the StDev (n = 9). […] The resistance index (EC50 in r22/EC50 in WT) are shown for each compound. (d) Scanning electron micrographs of WT and r22 promastigotes illustrating the shortened flagellum in r22 parasites. (e) Analysis of flagellum length in WT and r22 promastigotes (n = 287 of each strain) reported using a box and whisker plot (boxes represents the 25–75th percent distribution with the mean as a horizontal line, whiskers represent the distribution of all values) with a statistically significant difference (Mann–Whitney U test, p-value < 2.2 × 10^−16). […] Error bars represent upper and lower limits of the StDev (n = 9). […] The resistance index (EC50 in r22/EC50 in WT) are shown for each compound. TEXT PRINTED IN THE PICTURE: (c) 700022: 4.1 | (c) 700107: 4.1 | (c) 700136: 5.3 | (c) 700240: 5.3 | (f) 700022: 42.1 | (f) Milt: 17.9 | (f) Pent: 0.75 | (f) AmpB: 1.22 DOUBTS OF THE COPYIST ABOUT THIS PICTURE: Panels c and f: the numbers printed above the bar pairs have no measure or unit printed with them in the picture.
L. mexicana parasites were grown in increasing concentrations of 700022 in a stepwise manner, as previously described. […] A dose response assay of the newly selected promastigotes was completed as stated above, with the exception of the seeding density of 1 × 10^5 cells/mL. At this point, the drug pressure was increased to the concentration of the new EC50 value.

[2] = tested on: T. brucei bloodstream form; assay: Initial screen, T. brucei bloodstream form, Alamar Blue; type: cell-based, Trypanosoma brucei brucei; settings: initial screen; for activity at 2 µM: Trypanosoma brucei
Protocol: (§1) 634 compounds from the PhytoQuest Phytopure temperate plant natural product library were screened for growth inhibitory activity against L. mexicana axenic amastigotes, T. brucei bloodstream form, intraerythrocytic asexual P. falciparum (at 2 μM) and T. evansi bloodstream form parasites (at 1 μM). […] Our initial hits were defined as reducing growth of the parasite by ≥50%.
(§2) L. mexicana strain MNYC/BZ/62/M379 and L. donovani strain LdBOB (a clonal line from strain MHOM/SD/62/1S-CL2) were maintained in vitro in the procyclic promastigote stage. Parasites were cultivated at 26 °C in Schneider’s medium (Gibco) pH 7.0 containing 10% FBS, 100 U/mL penicillin (Lonza) and 100 μg/mL streptomycin (Lonza) as previously described. Differentiation into axenic amastigotes was performed as described previously. Briefly, axenic amastigotes were cultivated at 32 °C in Schneider’s medium pH 5.5 containing 10% FBS, 100 U/mL penicillin (Lonza) and 100 μg/mL streptomycin (Lonza). Bloodstream form T. brucei brucei strain Lister 427 and T. evansi strain Antat 3/3 [59] were maintained in vitro at 37 °C with 5% (v/v) CO2 in HMI-11 medium supplemented with 10% FBS, as described elsewhere. Intraerythrocytic cultures of P. falciparum Dd2^Luc strain [62] were maintained at 37 °C in a 1% O2:3% CO2:96% N2 atmosphere in RPMI-1640 containing 37.5 mM HEPES, 5 mM NaOH, 10 mM D-glucose, 2 mM L-glutamine, 100 μM hypoxanthine, […] gentamicin sulfate, 5% human serum and 5% albumax-II and 2% haematocrit erythrocytes. When required, cultures were synchronised to ring stages using the sorbitol lysis method. Preliminary cytotoxicity screening was assessed using HepG2 cells. These cells were maintained in vitro at 37 °C with 5% (v/v) CO2 in DMEM (Sigma) pH 7 supplemented with 10% FBS, 100 U/mL penicillin (Lonza) and 100 μg/mL streptomycin (Lonza), as previously described. The human monocyte cell line THP-1 [68] was maintained in vitro by culturing at 37 °C with 5% (v/v) CO2 in complete RPMI medium (Dutch modified RPMI-1640 (Gibco) containing 10% FBS and 2 mM L-glutamine (Gibco)). Differentiation of THP-1 cells into macrophages was performed by seeding 2.5 × 10^5 cells/mL in complete RPMI media, supplemented with 20 ng/mL phorbol 12-myristate 13-acetate (PMA), followed by incubation at 37 °C with 5% (v/v) CO2 for 24 h.
(§3) The library was provided as 634 non-polar compounds (1 mg/mL in DMSO). Initial screening was performed in a 96-well plate with 200 μL of parasite culture. The initial screen used each compound at a final concentration of 2 μM for L. mexicana axenic amastigotes, T. brucei and P. falciparum, and at 1 μM for T. evansi. L. mexicana axenic amastigotes were plated at 1 × 10^6 cells/mL, incubated for 72 h, and the Alamar Blue assay was used to assess parasite growth. Each compound was tested in triplicate, with two biological replicates (n = 6). T. brucei and T. evansi were plated at 1×10^5 cells/mL for 48 h, and the Alamar Blue assay was used to assess parasite growth. Each compound was tested in triplicate with two biological replicates (n = 6). Intraerythrocytic P. falciparum in the trophozoite stage were seeded at 0.5% parasitaemia and 2% haematocrit for 48 h, and the Malaria SYBR-Green I fluorescence assay was used to assess parasite growth. Each compound was tested in duplicate with two biological replicates (n = 4). Negative controls comprised an equivalent volume of DMSO (equivalent of 1% v/v) to normalise the growth data. Data points >100% growth and <0% growth were tabulated as 100% and 0%, respectively. Some compounds were not tested in all parasite lines as there was insufficient material remaining.

[3] = tested on: P. falciparum Dd2Luc intraerythrocytic trophozoites; assay: Initial screen, intraerythrocytic P. falciparum, Malaria SYBR-Green I fluorescence assay; type: cell-based, Plasmodium falciparum; settings: for activity at 2 µM: Plasmodium falciparum
Protocol: as §1, with “≥50%. […]” for “≥50%.”
as §3, with “The PhytoQuest Phytopure library is a commercially available collection of purified compounds isolated predominantly from temperate zone plants, with structures confirmed by NMR and mass spectrometry. The library” for “The library”

T. evansi = assay: Concentration-response EC50, T. evansi; type: cell-based; settings: Trypanosoma evansi, 48 h, read-out: T. evansi EC50
From the text: (§4) Initial hits from the parasite panel screen were taken forward in log concentration versus normalised response assays to estimate the half maximal effective concentration (EC50) in hit species as well as the half maximal cytotoxic concentrations (CC50) in the human hepatoma cell line HepG2 as a preliminary test for selectivity. Using CC50/EC50 to define the selectivity index (SI), the selectivity for each compound in a defined species compared to a human cell line was estimated and compared to the EC50 (Figure 3).
(§5) EC50 values were determined by serial two-fold dilution of each compound in 96 well plates. Culture conditions and viability assays were as stated for the initial screen, with some exceptions. L. mexicana and L. donovani axenic amastigotes were seeded at 2 × 10^6 cell/s mL, T. brucei and T. evansi were seeded at 2 × 10^5 cells/mL. For cytotoxicity studies, HepG2 cells were seeded at 1 × 10^5 cells/mL, incubated for 48 h and viability was assessed using the Alamar Blue assay [66, 67]. […] Normalised growth and viability data (compared to untreated controls) were plotted against Log10 concentration to estimate EC50 in GraphPad (Prism v6).

[4] = tested on: L. mexicana axenic amastigotes; assay: Initial screen, L. mexicana axenic amastigotes, Alamar Blue; type: cell-based, Leishmania mexicana; settings: for decrease of L. mexicana survival: 2 μM, 72 h; for activity at 2 µM: Leishmania mexicana
Protocol: as §1, with “≥50%. […]” for “≥50%.”
as §3, with “The PhytoQuest Phytopure library is a commercially available collection of purified compounds isolated predominantly from temperate zone plants, with structures confirmed by NMR and mass spectrometry. The library” for “The library”

[5] = tested on: T. evansi bloodstream form; assay: Initial screen, T. evansi bloodstream form, Alamar Blue; type: cell-based, Trypanosoma evansi; settings: Trypanosoma evansi; for activity at 1 µM: initial screen; for inhibition of growth at 1 µM: read-out: initial hit T.e
Protocol: as §1, §2, §3

[6] = tested on: L. mexicana axenic amastigotes; assay: Concentration-response EC50, L. mexicana axenic amastigotes (WT); type: cell-based, Leishmania mexicana; settings: Leishmania mexicana
From the text: as §4, §5

[7] = 48 h, read-out: %growth P. falciparum, mean % growth compared to a normalised control with same concentration of DMSO solvent, initial screen
[8] = read-out: % growth L. mexicana, mean % growth compared to a normalised control with same concentration of DMSO solvent, initial screen
[9] = mean % growth compared to a normalised control with same concentration of DMSO solvent, read-out: % growth T. evansi
[10] = mean % growth compared to a normalised control with same concentration of DMSO solvent, initial screen

C[C@@H]1[C@H](O)[C@@H](C)/C=C/C=C/C=C/C=C/C=C/C=C/C=C/[C@H](O[C@@H]2O[C@H](C)[C@@H](O)[C@H](N)[C@@H]2O)C[C@@H]2O[C@](O)(C[C@@H](O)C[C@@H](O)[C@H](O)CC[C@@H](O)C[C@@H](O)CC(=O)O[C@H]1C)C[C@H](O)[C@H]2C(=O)O [Amphotericin B, reference compound]
EC50 [1]: 0.28 µM

CC1=CC(CC(C)C2CCC3(C)C4=CCC5C(C)(C)C(=O)CCC5(C)C4CCC23C)OC1=O (stereo not shown) [Compound 700016]
activity at 2 µM ([2]; mean % growth compared to a normalised control with same concentration of DMSO solvent, read-out: % growth T. b. brucei): 75.7% | activity at 2 µM [3, 7]: 104% | EC50 (T. evansi; bloodstream form): > 3 µM | decrease of L. mexicana survival [4]: more than 50% | activity at 2 µM [4, 8]: 47.1% | activity at 1 µM [5, 9]: 40.5% | inhibition of growth at 1 µM ([5]; 1 μM, x = initial hit): > 50%

CC(=O)OC1C(O)C(C)OC(OC2C(OC(=O)C3CC[C@@H]4[C@H](C3)OC3(CC(OC(=O)/C=C/c5ccccc5)[C@@H](C)CO3)C43CO3)OC(CO)C(O)C2OC(C)=O)C1O (stereo partly shown) [Compound 700063]
% growth T. b. brucei ([2]; mean % growth compared to a normalised control with same concentration of DMSO solvent): 95.6% | activity against P. falciparum in screen ([3]; 2 μM): neither 700014 or 700063 showed activity against P. falciparum | %growth P. falciparum [3, 10]: 104.8% | EC50 (T. evansi): > 10 µM | decrease of L. mexicana survival [4]: ~70% | % growth L. mexicana [4, 10]: 70.5% | activity at 1 µM ([5]; read-out: % growth T. evansi, mean % growth compared to a normalised control with same concentration of DMSO solvent): 44.5% | inhibition of growth at 1 µM [5]: > 50%

CC(C)=CCc1c(O)cc2oc(-c3ccc(O)c(O)c3)c(O)c(=O)c2c1O [Compound 700326]
activity at 2 µM [3, 7]: 63.1% | EC50 (T. evansi; bloodstream form): 1.8 µM | activity at 2 µM [4, 8]: 27% | activity at 1 µM [5, 9]: 34.7% | inhibition of growth at 1 µM ([5]; 1 μM, x = initial hit): > 50%

CC(C)c1cc(CCC2C(=O)CCCC2(C)C)c(O)cc1O (stereo not shown) [Compound 700454]
activity at 2 µM ([2]; compared to a normalised control with same concentration of DMSO solvent, read-out: mean % growth, T. b. brucei): 77.3% | reduction of P. falciparum growth ([3]; 2 μM, 48 h, Dd2Luc): 5% | activity at 2 µM ([3]; 48 h, read-out: mean % growth, P. falciparum, initial screen, compared to a normalised control with same concentration of DMSO solvent): 95.4% | EC50 (T. evansi; bloodstream form): 3.3 µM | activity at 2 µM ([4]; read-out: mean % growth, L. mexicana, initial screen, compared to a normalised control with same concentration of DMSO solvent): 47.9% | activity at 1 µM ([5]; compared to a normalised control with same concentration of DMSO solvent, read-out: mean % growth, T. evansi): 43.7% | inhibition of growth at 1 µM ([5]; 1 μM, x = initial hit): > 50%

CCCCCCCCCCCCCCCCOP(=O)([O-])OCC[N+](C)(C)C [Miltefosine, reference compound]
r22 28 weeks RI (resistance index, EC50 in r22/EC50 in WT) [1]: 17.9 | EC50 [1]: 20 µM | EC50 ([6]; read-out: WT EC50, L. mexicana WT axenic amastigotes): 1.1 µM

N=C(N)c1ccc(OCCCCCOc2ccc(C(=N)N)cc2)cc1 [Pentamidine, reference compound]
r22 28 weeks RI (resistance index, EC50 in r22/EC50 in WT) [1]: 0.75 | EC50 [1]: 5.1 µM | EC50 ([6]; L. mexicana WT axenic amastigotes, read-out: WT EC50): 6.8 µM
